# Source: patent publication US5202315A, “Cephalosporin compounds” (Lucky, Ltd., priority 1989, dated 1993)
# What was measured:
# Test in all cases: Antibacterial activity, MIC
# Assay type in all cases: cell-based
# [1] = test system: Pseudomonas aeruginosa ATCC 25619; details: ATCC25619, ATCC 25619, agar two-fold dilution, 37° C., 20 hours, read-out: MIC
# How it was run: (§1)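 Values reflect agar dilution testing: Mueller-Hinton medium, two-fold compound series, 2 μl inoculum of 10^7 CFU/ml, 20 h incubation at 37 °C.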
# [2] = test system: Morganella morganii ATCC 8076h; details: ATCC8076H, agar two-fold dilution, 37° C., 20 hours
# How it was run: as §1
# [3] = test system: Pseudomonas aeruginosa ATCC 10145; details: ATCC10145, ATCC 10145, agar two-fold dilution, 37° C., 20 hours, read-out: MIC
# How it was run: as §1
# [4] = test system: Shigella flexneri ATCC 11836; details: ATCC11836, agar two-fold dilution, 37° C., 20 hours
# How it was run: as §1
# [5] = test system: Salmonella typhimurium ATCC 14028; details: Salmonella enterica; ATCC 14028; agar two-fold dilution, 37° C., 20 hours; read-out: MIC
# How it was run: as §1
# [6] = test system: Citrobacter freundii ATCC 8090; details: ATCC8090, ATCC 8090, agar two-fold dilution, 37° C., 20 hours, read-out: MIC
# How it was run: as §1
# [7] = test system: Serratia marcescens ATCC 27117; details: ATCC27117, ATCC 27117, agar two-fold dilution, 37° C., 20 hours, read-out: MIC
# How it was run: as §1
# [8] = test system: Acinetobacter calcoaceticus ATCC 15473; details: ATCC15473, ATCC 15473, agar two-fold dilution, 37° C., 20 hours, read-out: MIC
# How it was run: as §1
# [9] = test system: Staphylococcus aureus ATCC 6538p; details: ATCC6538P, ATCC 6538p, agar two-fold dilution, 37° C., 20 hours, read-out: MIC
# How it was run: as §1
# [10] = test system: Bacillus megaterium ATCC 9885; details: Priestia megaterium, ATCC9885; ATCC 9885; agar two-fold dilution, 37° C., 20 hours; read-out: MIC
# How it was run: as §1
# [11] = test system: Providencia rettgeri ATCC 9250; details: ATCC9250, agar two-fold dilution, 37° C., 20 hours
# How it was run: as §1
# [12] = test system: Staphylococcus aureus ATCC 10537; details: ATCC10537, ATCC 10537, agar two-fold dilution, 37° C., 20 hours, read-out: MIC
# How it was run: as §1
# [13] = test system: Staphylococcus epidermidis ATCC 12228; details: ATCC12228, ATCC 12228, agar two-fold dilution, 37° C., 20 hours, read-out: MIC
# How it was run: as §1
# [14] = test system: Bacillus cereus ATCC 11778; details: ATCC11778, ATCC 11778, agar two-fold dilution, 37° C., 20 hours, read-out: MIC
# How it was run: as §1
# [15] = test system: Proteus vulgaris ATCC 6059; details: ATCC6059, ATCC 6059, agar two-fold dilution, 37° C., 20 hours, read-out: MIC
# How it was run: as §1
# [16] = test system: Shigella sonnei ATCC 11060; details: ATCC11060, ATCC 11060, agar two-fold dilution, 37° C., 20 hours, read-out: MIC
# How it was run: as §1
# [17] = test system: Pseudomonas aeruginosa ATCC 27853; details: ATCC27853, ATCC 27853, agar two-fold dilution, 37° C., 20 hours, read-out: MIC
# How it was run: as §1
# [18] = test system: Micrococcus luteus ATCC 9341; details: ATCC9341, ATCC 9341, agar two-fold dilution, 37° C., 20 hours, read-out: MIC
# How it was run: as §1
# [19] = test system: Streptococcus faecalis ATCC 29212; details: Enterococcus faecalis, ATCC29212; ATCC 29212; agar two-fold dilution, 37° C., 20 hours; read-out: MIC
# How it was run: as §1
# [20] = test system: Enterobacter aerogenes ATCC 29751; details: Klebsiella aerogenes, ATCC29751; ATCC 29751; agar two-fold dilution, 37° C., 20 hours; read-out: MIC
# How it was run: as §1
# [21] = test system: Klebsiella pneumoniae ATCC 10031; details: ATCC10031, ATCC 10031, agar two-fold dilution, 37° C., 20 hours, read-out: MIC
# How it was run: as §1
# [22] = test system: Escherichia coli ATCC 10536; details: ATCC10536, agar two-fold dilution, 37° C., 20 hours
# How it was run: as §1
# [23] = test system: Enterobacter cloacae ATCC 27508; details: ATCC27508, ATCC 27508, agar two-fold dilution, 37° C., 20 hours, read-out: MIC
# How it was run: as §1
# [24] = test system: Escherichia coli ATCC 25922; details: ATCC25922, agar two-fold dilution, 37° C., 20 hours
# How it was run: as §1
# [25] = test system: Proteus mirabilis ATCC 25933; details: ATCC25933, ATCC 25933, agar two-fold dilution, 37° C., 20 hours, read-out: MIC
# How it was run: as §1
Compound,MIC [1] [µg/mL],MIC [2] [µg/mL],MIC [3] [µg/mL],MIC [4] [µg/mL],MIC [5] [µg/mL],MIC [6] [µg/mL],MIC [7] [µg/mL],MIC [8] [µg/mL],MIC [9] [µg/mL],MIC [10] [µg/mL],MIC [11] [µg/mL],MIC [12] [µg/mL],MIC [13] [µg/mL],MIC [14] [µg/mL],MIC [15] [µg/mL],MIC [16] [µg/mL],MIC [17] [µg/mL],MIC [18] [µg/mL],MIC [19] [µg/mL],MIC [20] [µg/mL],other results
CCC[n+]1c(N)cc(N)nc1SCC1=C(C(=O)[O-])N2C(=O)C(NC(=O)/C(=N\OCC)c3nsc(N)n3)C2SC1 (stereo not drawn) [Compound I-22],1,0.031,16,0.13,2,0.25,0.5,4,0.5,0.13,≤ 0.008,0.5,0.25,16,2,0.5,4,0.016,16,1,MIC [21]: 0.016 µg/mL; MIC [22]: 0.25 µg/mL; MIC [23]: 0.031 µg/mL; MIC [24]: 0.25 µg/mL; MIC [25]: 2 µg/mL
CO/N=C(\C(=O)NC1C(=O)N2C(C(=O)[O-])=C(CSc3nc(N)cc(N)[n+]3C)CSC12)c1nsc(N)n1 (stereo not drawn) [Compound I-24],4,0.063,16,0.031,0.5,0.13,0.25,2,0.5,0.25,0.016,0.5,0.25,32,1,0.13,4,0.13,32,1,MIC [21]: 0.031 µg/mL; MIC [22]: 0.13 µg/mL; MIC [23]: 0.063 µg/mL; MIC [24]: 0.13 µg/mL; MIC [25]: 1 µg/mL
CCO/N=C(\C(=O)NC1C(=O)N2C(C(=O)[O-])=C(CSc3nc(N)cc(N)[n+]3-c3ccc(Cl)cc3)CSC12)c1csc(N)n1 (stereo not drawn) [Compound I-40],2,0.016,16,0.25,2,1,1,16,0.5,0.063,≤ 0.008,0.25,0.13,16,0.5,0.5,8,0.016,32,2,MIC [21]: 0.031 µg/mL; MIC [22]: 0.5 µg/mL; MIC [23]: 0.13 µg/mL; MIC [24]: 0.5 µg/mL; MIC [25]: 0.5 µg/mL
CC(C)(O/N=C(\C(=O)NC1C(=O)N2C(C(=O)[O-])=C(CSc3nc(N)cc(N)[n+]3-c3ccc(O)cc3)CSC12)c1csc(N)n1)C(=O)O (stereo not drawn) [Compound I-36],1,≤ 0.008,2,0.063,0.5,0.25,0.5,16,4,0.13,≤ 0.008,2,2,32,0.13,0.25,1,0.25,> 128,2,MIC [21]: 0.13 µg/mL; MIC [22]: 0.25 µg/mL; MIC [23]: 0.063 µg/mL; MIC [24]: 0.25 µg/mL; MIC [25]: 0.13 µg/mL
C=CCO/N=C(\C(=O)NC1C(=O)N2C(C(=O)[O-])=C(CSc3nc(N)cc(N)[n+]3C)CSC12)c1csc(N)n1 (stereo not drawn) [Compound I-49],1,≤ 0.008,16,0.063,1,0.25,0.5,8,0.25,0.25,≤ 0.008,0.25,0.13,32,0.5,0.25,8,0.031,16,1,MIC [21]: 0.016 µg/mL; MIC [22]: 0.25 µg/mL; MIC [23]: 0.031 µg/mL; MIC [24]: 0.25 µg/mL; MIC [25]: 0.5 µg/mL
CCO/N=C(\C(=O)NC1C(=O)N2C(C(=O)[O-])=C(CSc3nc(N)cc(N)[n+]3CC)CSC12)c1nsc(N)n1 (stereo not drawn) [Compound I-21],1,0.016,4,0.063,0.5,0.13,0.25,4,0.5,0.13,≤ 0.008,0.25,0.13,16,1,0.25,2,0.016,16,0.5,MIC [21]: 0.016 µg/mL; MIC [22]: 0.13 µg/mL; MIC [23]: 0.016 µg/mL; MIC [24]: 0.13 µg/mL; MIC [25]: 1 µg/mL
